Earlier results as cited in patent publication US20200319191A1, “MOLECULAR PROFILING FOR CANCER” (Caris MPI, Inc., priority 2015, published 2020).
Read-outs that look alike come from different tables or passages of the source.

Conditions: for Evid. Level, ER Positive (IHC) / Bene. Level, ER Positive (IHC): Hormonal Agents; for sensitivity by EGFRvIII expression: preliminary studies; for sensitivity of AML tumor cells by NPM status: AML tumor cells with mutant NPM; for response by TOPOI expression: expression of TOPOI; for benefit by PIK3CA status: PIK3CA exon 20 mutations; for PGP Positive (IHC) Evid. Level: taxanes rule, Ref. No. 28; for Bene. Level, PGP Positive (IHC) / Evid. Level, PGP Positive (IHC): Anthracyclines; for resistance by ALK secondary mutations: ALK secondary mutations found in NSCLC
[1] = IHC positive: TLE3 F, TUBB3 F, PGP F
[2] = IHC positive: TLE3 F, TUBB3 F, PGP T
[3] = IHC positive: TLE3 F, TUBB3 No Data, PGP F
[4] = IHC positive: TLE3 F, TUBB3 No Data, PGP T
[5] = IHC positive: TLE3 F, TUBB3 T, PGP F
[6] = IHC positive: TLE3 F, TUBB3 T, PGP T
[7] = IHC positive: TLE3 No Data, TUBB3 F, PGP F
[8] = IHC positive: TLE3 No Data, TUBB3 F, PGP T
[9] = IHC positive: TLE3 No Data, TUBB3 No Data, PGP F
[10] = IHC positive: TLE3 No Data, TUBB3 No Data, PGP T
[11] = IHC positive: TLE3 No Data, TUBB3 T, PGP F
[12] = IHC positive: TLE3 No Data, TUBB3 T, PGP T
[13] = IHC positive: TLE3 T, TUBB3 F, PGP F
[14] = IHC positive: TLE3 T, TUBB3 F, PGP T
[15] = IHC positive: TLE3 T, TUBB3 No Data, PGP F
[16] = IHC positive: TLE3 T, TUBB3 No Data, PGP T
[17] = IHC positive: TLE3 T, TUBB3 T, PGP F
[18] = IHC positive: TLE3 T, TUBB3 T, PGP T

CC/C(=C(\c1ccccc1)c1ccc(OCCN(C)C)cc1)c1ccccc1 [tamoxifen]
Evid. Level, ER Positive (IHC) (ER Positive (IHC)=F): 1 | Bene. Level, ER Positive (IHC) (ER Positive (IHC)=T): 1 | Evid. Level, ER Positive (IHC) (ER Positive (IHC)=T): 1

CN(C)CCOc1ccc(/C(=C(/CCCl)c2ccccc2)c2ccccc2)cc1 [toremifene]
Evid. Level, ER Positive (IHC) (ER Positive (IHC)=F): 1 | Bene. Level, ER Positive (IHC) (ER Positive (IHC)=T): 1 | Evid. Level, ER Positive (IHC) (ER Positive (IHC)=T): 1

COc1cc2ncnc(Nc3ccc(F)c(Cl)c3)c2cc1OCCCN1CCOCC1 [gefitinib]
sensitivity by EGFRvIII expression: higher sensitivity to erlotinib and gefitinib, as well as to pan-Her inhibitors including

O=C(O)C(=O)O.[NH-][C@@H]1CCCC[C@H]1[NH-].[Pt+2] [oxaliplatin]
disease control rate by APC status (APC wild type patients, metastatic setting, colorectal): event in colorectal tumorigenesis. APC wild type patients have shown better disease

CC[C@@]1(O)C(=O)OCc2c1cc1n(c2=O)Cc2cc3ccccc3nc2-1 [camptothecin]
sensitivity of AML tumor cells by NPM status: research shows AML tumor cells with mutant NPM are more sensitive to

C[C@]12CC[C@@H]3c4ccc(O)cc4C[C@@H](CCCCCCCCC[S+]([O-])CCCC(F)(F)C(F)(F)F)[C@H]3[C@@H]1CC[C@@H]2O (stereo partly shown) [fulvestrant]
Evid. Level, ER Positive (IHC) (ER Positive (IHC)=F): 1 | Bene. Level, ER Positive (IHC) (ER Positive (IHC)=T): 1 | Evid. Level, ER Positive (IHC) (ER Positive (IHC)=T): 1

CCC1=C[C@@H]2CN(C1)Cc1c([nH]c3ccccc13)[C@@](C(=O)OC)(c1cc3c(cc1OC)N(C)[C@H]1[C@@](O)(C(=O)OC)[C@H](OC(C)=O)[C@]4(CC)C=CCN5CC[C@]31[C@@H]54)C2 [vinorelbine]
resistance by loss of FBXW7 (loss of FBXW7, tubulin-targeting agents): loss of FBXW7 confers resistance to tubulin-targeting agents like paclitaxel or vinorelbine,

CCCS(=O)(=O)Nc1ccc(F)c(C(=O)c2c[nH]c3ncc(-c4ccc(Cl)cc4)cc23)c1F [vemurafenib]
tumors that develop in treated patients (patients treated with BRAF inhibitor, likely paradoxical activation of the MAPK pathway): cutaneous squamous cell carcinomas and keratoacanthomas that develop in patients treated

CCOc1cc2ncc(C#N)c(Nc3ccc(OCc4ccccn4)c(Cl)c3)c2cc1NC(=O)/C=C/CN(C)C [neratinib]
sensitivity by EGFRvIII expression: higher sensitivity to erlotinib and gefitinib, as well as to pan-Her inhibitors including

CCc1c2c(nc3ccc(OC(=O)N4CCC(N5CCCCC5)CC4)cc13)-c1cc3c(c(=O)n1C2)COC(=O)[C@]3(O)CC [irinotecan]
response by TOPOI expression: DNA molecule. Expression of TOPOI has been associated with response to TOPOI

C=C1C[C@@H]2[C@H](CC[C@]3(C)C(=O)CC[C@@H]23)[C@@]2(C)C=CC(=O)C=C12 [exemestane]
Evid. Level, ER Positive (IHC) (ER Positive (IHC)=F): 1 | Bene. Level, ER Positive (IHC) (ER Positive (IHC)=T): 1 | Evid. Level, ER Positive (IHC) (ER Positive (IHC)=T): 1

CO[C@H]1C[C@@H]2CC[C@@H](C)[C@@](O)(O2)C(=O)C(=O)N2CCCC[C@H]2C(=O)O[C@H]([C@H](C)C[C@@H]2CC[C@@H](OC(=O)C(C)(CO)CO)[C@H](OC)C2)CC(=O)[C@H](C)/C=C(\C)[C@@H](O)[C@@H](OC)C(=O)[C@H](C)C[C@H](C)/C=C/C=C/C=C/1C [temsirolimus]
benefit by PIK3CA status: associated with benefit from mTOR inhibitors (everolimus, temsirolimus). Evidence

N#Cc1ccc(C(c2ccc(C#N)cc2)n2cncn2)cc1 [letrozole]
Evid. Level, ER Positive (IHC) (ER Positive (IHC)=F): 1 | Bene. Level, ER Positive (IHC) (ER Positive (IHC)=T): 1 | Evid. Level, ER Positive (IHC) (ER Positive (IHC)=T): 1

COc1cccc2c1C(=O)c1c(O)c3c(c(O)c1C2=O)C[C@@](O)(C(C)=O)C[C@@H]3O[C@H]1C[C@H](N)[C@H](O)[C@H](C)O1 [daunorubicin]
sensitivity of AML tumor cells by NPM status: research shows AML tumor cells with mutant NPM are more sensitive to

CC(=O)O[C@H]1C(=O)[C@@]2(C)[C@H]([C@H](OC(=O)c3ccccc3)[C@]3(O)C[C@H](OC(=O)[C@H](O)[C@@H](NC(=O)c4ccccc4)c4ccccc4)C(C)=C1C3(C)C)[C@]1(OC(C)=O)CO[C@@H]1C[C@@H]2O [paclitaxel]
PGP Positive (IHC) Bene. Level [1]: 1 | PGP Positive (IHC) Bene. Level [2]: 2 | PGP Positive (IHC) Bene. Level [3]: 1 | PGP Positive (IHC) Bene. Level [4]: 3 | PGP Positive (IHC) Bene. Level [5]: 1 | PGP Positive (IHC) Bene. Level [6]: 3 | PGP Positive (IHC) Bene. Level [7]: 1 | PGP Positive (IHC) Bene. Level [8]: 2 | PGP Positive (IHC) Bene. Level [9]: 1 | PGP Positive (IHC) Bene. Level [10]: 3 | PGP Positive (IHC) Bene. Level [11]: 1 | PGP Positive (IHC) Bene. Level [12]: 3 | PGP Positive (IHC) Bene. Level [13]: 1 | PGP Positive (IHC) Bene. Level [14]: 2 | PGP Positive (IHC) Bene. Level [15]: 1 | PGP Positive (IHC) Bene. Level [16]: 2 | PGP Positive (IHC) Bene. Level [17]: 1 | PGP Positive (IHC) Bene. Level [18]: 2 | PGP Positive (IHC) Evid. Level: 3

COc1cc2ncnc(Nc3ccc(F)c(Cl)c3)c2cc1NC(=O)/C=C/CN1CCCCC1 [dacomitinib]
sensitivity by EGFRvIII expression: higher sensitivity to erlotinib and gefitinib, as well as to pan-Her inhibitors including

COc1cccc2c1C(=O)c1c(O)c3c(c(O)c1C2=O)C[C@@](O)(C(=O)CO)C[C@@H]3O[C@H]1C[C@H](N)[C@@H](O)[C@H](C)O1 [epirubicin]
Bene. Level, PGP Positive (IHC) (PGP Positive (IHC)=F): 1 | Evid. Level, PGP Positive (IHC) (PGP Positive (IHC)=F): 2 | Bene. Level, PGP Positive (IHC) (PGP Positive (IHC)=T): 2 | Evid. Level, PGP Positive (IHC) (PGP Positive (IHC)=T): 2

C[C@@H](Oc1cc(-c2cnn(C3CCNCC3)c2)cnc1N)c1c(Cl)ccc(F)c1Cl [crizotinib]
resistance by ALK secondary mutations: mutations found in NSCLC have been associated with acquired resistance to ALK | sensitivity and response by ROS1 status (ROS-rearranged NSCLC patients, clinical data): improved response to the MET/ALK/ROS inhibitor, crizotinib.

Cc1cc(Nc2ncc(Cl)c(Nc3ccccc3S(=O)(=O)C(C)C)n2)c(OC(C)C)cc1C1CCNCC1 [ceritinib]
resistance by ALK secondary mutations: mutations found in NSCLC have been associated with acquired resistance to ALK

CO[C@H]1C[C@@H]2CC[C@@H](C)[C@@](O)(O2)C(=O)C(=O)N2CCCC[C@H]2C(=O)O[C@H]([C@H](C)C[C@@H]2CC[C@@H](OCCO)[C@H](OC)C2)CC(=O)[C@H](C)/C=C(\C)[C@@H](O)[C@@H](OC)C(=O)[C@H](C)C[C@H](C)/C=C/C=C/C=C/1C [everolimus]
benefit by PIK3CA status: associated with benefit from mTOR inhibitors (everolimus, temsirolimus). Evidence

CC(=O)O[C@@]12CO[C@@H]1C[C@H](O)[C@@]1(C)C(=O)[C@H](O)C3=C(C)[C@@H](OC(=O)[C@H](O)[C@@H](NC(=O)OC(C)(C)C)c4ccccc4)C[C@@](O)([C@@H](OC(=O)c4ccccc4)[C@H]21)C3(C)C [docetaxel]
PGP Positive (IHC) Bene. Level [1]: 1 | PGP Positive (IHC) Bene. Level [2]: 2 | PGP Positive (IHC) Bene. Level [3]: 1 | PGP Positive (IHC) Bene. Level [4]: 3 | PGP Positive (IHC) Bene. Level [5]: 1 | PGP Positive (IHC) Bene. Level [6]: 3 | PGP Positive (IHC) Bene. Level [7]: 1 | PGP Positive (IHC) Bene. Level [8]: 2 | PGP Positive (IHC) Bene. Level [9]: 1 | PGP Positive (IHC) Bene. Level [10]: 3 | PGP Positive (IHC) Bene. Level [11]: 1 | PGP Positive (IHC) Bene. Level [12]: 3 | PGP Positive (IHC) Bene. Level [13]: 1 | PGP Positive (IHC) Bene. Level [14]: 2 | PGP Positive (IHC) Bene. Level [15]: 1 | PGP Positive (IHC) Bene. Level [16]: 2 | PGP Positive (IHC) Bene. Level [17]: 1 | PGP Positive (IHC) Bene. Level [18]: 2 | PGP Positive (IHC) Evid. Level: 3

CC[C@@]1(O)C(=O)OCc2c1cc1n(c2=O)Cc2cc3c(CN(C)C)c(O)ccc3nc2-1 [topotecan]
response by TOPOI expression: DNA molecule. Expression of TOPOI has been associated with response to TOPOI

C#Cc1cccc(Nc2ncnc3cc(OCCOC)c(OCCOC)cc23)c1 [erlotinib]
sensitivity by EGFRvIII expression: higher sensitivity to erlotinib and gefitinib, as well as to pan-Her inhibitors including | response by EGFR secondary mutation (T790M in exon 20): mutation, T790M in exon 20, confers reduced response. Non-small cell lung cancer cancer | sensitivity by EGFR gain-of-function mutations (in-frame deletions in exon 19 or point mutations in exon 21): point mutations in exon 21, confer sensitivity to first- and second-generation tyrosine

COc1cccc2c1C(=O)c1c(O)c3c(c(O)c1C2=O)C[C@@](O)(C(=O)CO)C[C@@H]3O[C@H]1C[C@H](N)[C@H](O)[C@H](C)O1 [doxorubicin, reference compound]
Bene. Level, PGP Positive (IHC) (PGP Positive (IHC)=F): 1 | Evid. Level, PGP Positive (IHC) (PGP Positive (IHC)=F): 2 | Bene. Level, PGP Positive (IHC) (PGP Positive (IHC)=T): 2 | Evid. Level, PGP Positive (IHC) (PGP Positive (IHC)=T): 2
